In patent US4550115A, “Certain piperidino-lower-alkylene esters of 3-methylflavone-8-carboxylates possessing smooth muscle relaxant activity” (Recordati S.A., Chemical & Pharmaceutical Company, priority 1981, dated 1985):
Structures can show the parent of a compound that is named as a salt. Where two headings read alike, the source gives them in different places.

Columns and labels:
guinea pig ileum = assay: Antispastic or antispasmodic activity, BaCl2-induced contraction of guinea pig ileum (Magnus method); settings: Cavia porcellus, 1 min, read-out: ED50 (antispastic or antispasmodic activity)
Experimental: The antispastic or antispasmodic activity was evaluated following the Magnus method [Pflugers Arch. […] Two equal contractions were induced by BaCl2 at a concentration ranging between 1 and 4.10^-4 M in guinea pig ileum maintained at 30° C. in Ringer solution and aerated with Carbogen.
The test drug was administered and, one minute later, BaCl2 in the same concentration. The inhibition of the contraction was observed.

[1] = test system: guinea pig depolarized taenia coli; assay: Calcium blocking activity on guinea pig depolarized taenia coli (Ferrari and Carpenedo); settings: Cavia porcellus; cumulative CaCl2, K+-depolarized guinea pig taenia coli; read-out: Calcium blocking activity ED50
Experimental: The calcium blocking activity was tested on guinea pig depolarized taenia coli, according to the method described by Ferrari and Carpenedo [Arch. Int. Pharmacodyn., 174, 223 (1968)]. The guinea pig taenia coli was allowed to stabilize in Tyrode solution without Ca^++. It was then washed with K2 SO4 Ringer solution and afterwards perfused with KNO3 Ringer. Cumulative concentrations of CaCl2 were added to the organ bath in absence or presence of the test drug.

in vivo = settings: mouse
physchem = settings: phosphate buffer, pH 7.4
Experimental: Such stability was measured at 37° C. in simulated gastric fluid (U.S. Pat. No. XX, 1105, 1980) and in phosphate buffer (pH 7.4) by spectrodensitometric determination of 3-methylflavone-8-carboxylic acid resulting from eventual hydrolysis.

[2] = test system: guinea pig isolated ureter; assay: Antispastic activity, spontaneous mobility of guinea pig isolated ureter (Trendelemburg method); settings: Cavia porcellus
Experimental: The smooth muscle relaxant activity of the novel flavone derivatives was also measured through the spontaneous mobility of guinea pig isolated ureter. […] The ureter was allowed to stabilize in Tyrode solution with the upper part closed and the inner part connected to a pressure transducer. The test drugs were given cumulatively and the spontaneous circular and longitudinal contractions of the ureter were measured.

[3] = guinea pig ileum, 30° C., BaCl2 1 to 4.10^-4 M, drug one minute before BaCl2, inhibition of contraction
[4] = circular contractions, cumulative dosing, read-out: Antispastic Activity Isolated Ureter ED50, circular contractions
[5] = longitudinal contractions, cumulative dosing, read-out: Antispastic Activity Isolated Ureter ED50, longitudinal contractions

| Structure (SMILES) | IC50 (guinea pig ileum; [3]) [µM] | IC50 [1] [µM] | LD50 (in vivo; ip) [µmol/kg] | LD50 (in vivo; po) [µmol/kg] | remaining at 1 h (physchem) [%] | remaining at 3 h (physchem) [%] | IC50 [2, 4] [µM] | IC50 [2, 5] [µM] | IC50 (guinea pig ileum) [µM] | IC50 ([2]; read-out: Antispastic Activity Isolated Ureter ED50, circular contractions) [µM] | IC50 ([2]; read-out: Antispastic Activity Isolated Ureter ED50, longitudinal contractions) [µM] |
| --- | --- | --- | --- | --- | --- | --- | --- | --- | --- | --- | --- |
| Cc1c(-c2ccccc2)oc2c(C(=O)OC3CCCCC3CN3CCCCC3)cccc2c1=O (centres unmarked) [Active compound 9, 2-piperidinomethyl cyclohexyl] | 4 | 26 | 190 | 1080 | 88 | 87 |  |  |  |  |  |
| Cc1c(-c2ccccc2)oc2c(C(=O)OC(C)CN3CCCCC3)cccc2c1=O (centres unmarked) [Active compound 3, 1-methyl-piperidino-ethyl] | 9.7 | 19 | 500 | 850 | 40 | 30 |  |  |  |  |  |
| Cc1c(-c2ccccc2)oc2c(C(=O)OC(CN3CCCCC3)c3ccccc3)cccc2c1=O (centres unmarked) [Active compound 4, 1-phenyl-2-piperidino-ethyl] | 6.7 |  |  |  | 68 | 34 |  |  |  |  |  |
| Cc1c(-c2ccccc2)oc2c(C(=O)OCCCN3CCCCC3C)cccc2c1=O (centres unmarked) [Active compound 1, 3-(2-methyl-N-piperidino)-propyl 3-methylflavone-8-carboxylate hydrochloride] | 4 | 24 | 560 | 1860 | 100 | 100 | 8.5 | 6.9 |  |  |  |
| Cc1c(-c2ccccc2)oc2c(C(=O)OC(C)CCN3CCCCC3)cccc2c1=O (centres unmarked) [Active compound 2, 1-methyl-3-(N-piperidino)propyl] | 6.2 | 16 | 160 | 690 | 100 | 100 |  |  |  |  |  |
| Cc1c(-c2ccccc2)oc2c(C(=O)OC(C)(C)CN3CCCCC3C)cccc2c1=O (centres unmarked) [Active compound 6] | 3.4 | 7.5 |  |  | 100 | 100 | 5.3 | 2.5 |  |  |  |
| Cc1c(-c2ccccc2)oc2c(C(=O)OC3CCCN(C)C3)cccc2c1=O.Cl (centres unmarked) [Active compound 11, N-methyl-3-piperidyl 3-methylflavone-8-carboxylate hydrochloride] |  |  | 360 | 770 | 100 | 100 |  |  |  |  |  |
| Cc1c(-c2ccccc2)oc2c(C(=O)OC3CC4CCC(C3)N4C)cccc2c1=O (centres unmarked) [Active compound 12, 3-tropinyl-3-methylflavone-8-carboxylate] |  |  | 420 | 950 | 100 | 100 |  |  | 4.3 | 20 | 9 |
| Cc1c(-c2ccccc2)oc2c(C(=O)O[C@@H]3CCCC[C@@H]3N3CCCCC3)cccc2c1=O.Cl (relative stereo) [Active compound 8, cis-2-piperidino-cyclohexyl 3-methyl-flavone-8-carboxylate hydrochloride] | 2.7 | 7.3 |  | 2160 | 85 | 70 | 5 | 2.5 |  |  |  |
| Cc1c(-c2ccccc2)oc2c(C(=O)OC(C)(C)CN3CCCCC3)cccc2c1=O [Active compound 5, 1,1-dimethyl-2-(N-piperidino)ethyl-3-methylflavone-8-carboxylate] | 2.4 | 8.6 |  |  | 96 | 91 | 12 | 2.8 |  |  |  |
| Cc1c(-c2ccccc2)oc2c(C(=O)OCC(O)CN3CCCCC3)cccc2c1=O (centres unmarked) [Active compound 7, 2-hydroxy-3-(N-piperidino)propyl 3-methylflavone-8-carboxylate] |  |  | 580 | 3100 | 44 | 25 |  |  |  |  |  |
| Cc1c(-c2ccccc2)oc2c(C(=O)OC3CCN(C)CC3)cccc2c1=O [Active compound 10, 1-methyl-4-piperidinyl] |  |  | 150 | 850 | 100 | 100 |  |  |  |  |  |
| Cc1c(-c2ccccc2)oc2c(C(=O)O[C@@H]3CCCC[C@H]3N3CCCCC3)cccc2c1=O (relative stereo) [Active compound 14] | 7.7 |  |  |  |  |  |  |  |  |  |  |
| Cc1c(-c2ccccc2)oc2c(C(=O)OCCN3CCCCC3)cccc2c1=O [FLAVOXATE, 2-(N-piperidino)ethyl 3-methylflavone-8-carboxylate hydrochloride, reference compound] | 5.6 | 25 | 900 | 1890 | 22 | 10 |  |  |  |  |  |
